In US20230134003A1, “METHOD AND APPARATUS FOR CLINICAL TESTING” (Lightcast Discovery Ltd, priority 2019, published 2023):

System: sample strain of E. coli bacteria
Test: Panel merge and MIC determination in microdroplets on oEWOD chip
Format: cell-based
Conditions: gentamicin in tryptic soy broth (TSB) droplets merged with droplets of 1-3 bacteria; growth pattern observed within three hours of reducing the concentration
Method: Droplets were paired together so that the post-merge droplets were all roughly of uniform size. Every third droplet was labelled as a control and remained unpaired. The smaller droplets in this example contained the antibiotic gentamicin at a concentration of 500 ng/mL in tryptic soy broth (TSB), whilst each of the larger droplets contained 1-3 bacteria in TSB. […] Within three hours of reducing the concentration, a robust growth behaviour pattern was observed, allowing for a determination of the MIC. In this particular case, the MIC was determined to lie at approximately 300 pg/mL.

For gentamicin, the MIC was “approximately 300 pg/mL”.
